Test results as given in patent publication US11878966B2, “Substituted 4-benzyl and 4-benzoyl piperidine derivates” (89BIO LTD, priority 2015, dated 2024).

The molecules below were run against T1, recombinant human baculovirus-expressed GST-tagged FASN (Homo sapiens, UniProt P49327) (assay: FASN enzyme activity assay: fluorescence-based detection of CoA with CPM). Details: 5 nM FASN, 150 μM NADPH, 10 μM acetyl-CoA, 25 μM malonyl-CoA, 90 minutes incubation.
T1 construct: GST; host or cells: baculovirus expression system (insect cells implied)
T1 sequence (P49327 whole entry): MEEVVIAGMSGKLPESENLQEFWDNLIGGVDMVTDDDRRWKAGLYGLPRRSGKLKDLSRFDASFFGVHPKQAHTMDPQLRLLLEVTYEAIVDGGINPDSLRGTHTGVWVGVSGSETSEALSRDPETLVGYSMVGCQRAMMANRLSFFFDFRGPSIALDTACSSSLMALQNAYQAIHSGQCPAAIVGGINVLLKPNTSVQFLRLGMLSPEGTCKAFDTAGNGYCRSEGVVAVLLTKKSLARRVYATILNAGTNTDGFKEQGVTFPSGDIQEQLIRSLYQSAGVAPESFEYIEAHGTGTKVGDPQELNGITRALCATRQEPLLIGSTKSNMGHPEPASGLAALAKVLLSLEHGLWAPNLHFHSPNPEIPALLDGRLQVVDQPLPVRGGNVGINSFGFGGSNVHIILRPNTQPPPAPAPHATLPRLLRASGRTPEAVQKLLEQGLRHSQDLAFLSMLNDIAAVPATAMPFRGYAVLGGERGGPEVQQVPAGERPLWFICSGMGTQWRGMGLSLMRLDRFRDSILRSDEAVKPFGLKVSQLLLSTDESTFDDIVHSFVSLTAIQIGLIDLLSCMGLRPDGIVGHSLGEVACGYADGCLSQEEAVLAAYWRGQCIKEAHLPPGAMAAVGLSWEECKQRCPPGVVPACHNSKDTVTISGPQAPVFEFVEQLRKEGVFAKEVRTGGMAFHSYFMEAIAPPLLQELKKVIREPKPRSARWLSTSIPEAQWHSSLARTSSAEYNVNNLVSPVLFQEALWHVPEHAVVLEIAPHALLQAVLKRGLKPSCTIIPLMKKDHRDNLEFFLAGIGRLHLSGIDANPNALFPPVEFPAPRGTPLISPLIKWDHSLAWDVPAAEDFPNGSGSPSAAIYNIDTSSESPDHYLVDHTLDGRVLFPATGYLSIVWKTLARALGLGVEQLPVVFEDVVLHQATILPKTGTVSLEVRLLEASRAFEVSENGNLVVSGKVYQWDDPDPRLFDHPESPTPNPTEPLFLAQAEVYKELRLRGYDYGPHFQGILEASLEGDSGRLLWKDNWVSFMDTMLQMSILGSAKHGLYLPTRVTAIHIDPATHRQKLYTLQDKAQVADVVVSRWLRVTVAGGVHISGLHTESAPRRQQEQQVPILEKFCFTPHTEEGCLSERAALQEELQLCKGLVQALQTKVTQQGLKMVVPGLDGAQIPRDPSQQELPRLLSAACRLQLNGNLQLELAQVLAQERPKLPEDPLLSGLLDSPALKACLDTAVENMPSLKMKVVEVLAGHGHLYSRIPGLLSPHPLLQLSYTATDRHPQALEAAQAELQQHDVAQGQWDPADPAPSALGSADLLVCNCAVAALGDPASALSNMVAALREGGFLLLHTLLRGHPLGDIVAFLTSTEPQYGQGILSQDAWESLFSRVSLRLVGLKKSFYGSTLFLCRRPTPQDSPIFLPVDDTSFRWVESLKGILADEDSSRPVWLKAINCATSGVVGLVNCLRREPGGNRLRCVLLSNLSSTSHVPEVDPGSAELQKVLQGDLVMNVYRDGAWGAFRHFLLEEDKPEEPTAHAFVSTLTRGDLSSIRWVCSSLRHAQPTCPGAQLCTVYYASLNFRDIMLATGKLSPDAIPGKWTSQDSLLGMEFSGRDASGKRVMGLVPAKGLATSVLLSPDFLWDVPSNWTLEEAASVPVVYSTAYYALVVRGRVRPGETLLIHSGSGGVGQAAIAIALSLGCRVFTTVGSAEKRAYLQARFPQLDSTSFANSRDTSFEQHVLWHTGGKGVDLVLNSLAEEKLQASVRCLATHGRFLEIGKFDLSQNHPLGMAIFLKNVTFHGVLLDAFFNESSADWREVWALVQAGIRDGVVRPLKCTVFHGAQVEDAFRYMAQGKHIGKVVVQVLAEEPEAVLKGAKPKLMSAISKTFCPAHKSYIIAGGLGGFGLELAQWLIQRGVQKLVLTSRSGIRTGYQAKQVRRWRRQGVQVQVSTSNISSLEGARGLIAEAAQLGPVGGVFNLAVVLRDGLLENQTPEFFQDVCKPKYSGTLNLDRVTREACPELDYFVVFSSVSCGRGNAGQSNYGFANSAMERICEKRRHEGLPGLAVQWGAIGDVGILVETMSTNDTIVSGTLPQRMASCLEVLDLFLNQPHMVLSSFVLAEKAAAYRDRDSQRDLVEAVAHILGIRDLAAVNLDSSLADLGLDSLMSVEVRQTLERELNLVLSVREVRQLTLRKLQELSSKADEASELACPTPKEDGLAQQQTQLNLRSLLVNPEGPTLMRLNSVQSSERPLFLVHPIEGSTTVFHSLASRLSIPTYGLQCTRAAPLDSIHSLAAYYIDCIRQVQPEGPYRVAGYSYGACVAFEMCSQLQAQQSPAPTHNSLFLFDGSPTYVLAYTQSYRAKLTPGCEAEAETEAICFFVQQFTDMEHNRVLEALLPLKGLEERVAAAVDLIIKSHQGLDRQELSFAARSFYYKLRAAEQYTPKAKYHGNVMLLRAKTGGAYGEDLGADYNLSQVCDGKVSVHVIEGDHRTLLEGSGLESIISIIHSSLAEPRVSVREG
Type: biochemical
In short: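 IC50 values were fitted (variable-slope sigmoid) to percent inhibition from CPM fluorescence (390/530 nm) reporting free CoA after a 30 min labelling step. The reaction ran 90 min after malonyl-CoA (25 μM) addition, with 10 μM acetyl-CoA, 150 μM NADPH, 5 nM recombinant GST-FASN, 50 mM HEPES pH 7.5 and 0.5% DMSO.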
`CCC(=O)N1CCC(Cc2ccc(-c3ccc4nccn4c3C)cc2)CC1` [Example 94, 1-{4-[4-(5-Methylimidazo[1,2-a]pyridin-6-yl)-benzyl]-piperidin-1-yl}-propan-1-one] showed an IC50 of 0.1 to 0.999 µM. `CCC(=O)N1CCC(C(=O)c2ccc(-c3ccc4cnccc4c3)cc2F)CC1` [Example 127, 1-[4-(2-Fluoro-4-isoquinolin-6-yl-benzoyl)-piperidin-1-yl]-propan-1-one] showed an IC50 of 0.001 to 0.099 µM. `CCC(=O)N1CCC(F)(C(O)c2ccc(-c3ccc4cccnc4c3C)cc2)CC1` (stereo not shown) [Example 223] gave an IC50 of 0.001 to 0.099 µM. Molecule `Cc1c(-c2ccc(CC3CCN(C(=O)C4(O)CC4)CC3)cc2)ccc2nccn12` [Example 96, (1-Hydroxycyclopropyl)-{4-[4-(5-methylimidazo[1,2-a]pyridin-6-yl)-benzyl]-piperidin-1-yl}-methanone] has an IC50 of 0.001 to 0.099 µM. `CCOC(C)(c1ccc(-c2ccc3cccnc3c2)cc1)C1CCN(C(=O)C2CC2)CC1` (stereo not shown) [Example 215, Cyclopropyl-{4-[1-ethoxy-1-(4-quinolin-7-yl-phenyl)-ethyl]-piperidin-1-yl}-methanone] showed an IC50 of 0.1 to 0.999 µM. Work on `CCC(=O)N1CCC(C(=O)c2c(F)cc(-c3ccc4cnccc4c3)cc2F)CC1` [Example 138, 1-[4-(2,6-Difluoro-4-isoquinolin-6-yl-benzoyl)-piperidin-1-yl]-propan-1-one] yielded an IC50 of 0.1 to 0.999 µM. `CN(C)Cc1ccc(-c2ccc(C3(C4CCN(C(=O)C5CC5)CC4)OCCO3)cc2)cc1` [Example 137, Cyclopropyl-{4-[2-(4′-dimethylaminomethyl-biphenyl-4-yl)-1,3-dioxolan-2-yl]-piperidin-1-yl}-methanone] was tested, and the IC50 was 1 to 10 µM. `CC(C)C(=O)N1CCC(C2(c3ccc(-c4ccc(CN(C)C)cc4)cc3)OCCO2)CC1` [Example 135, 1-{4-[2-(4′-Dimethylaminomethyl-biphenyl-4-yl)-1,3-dioxolan-2-yl]piperidin-1-yl}-2-methyl-propan-1-one] gave an IC50 of 1 to 10 µM. In the case of `CCC(=O)N1CCC(C(C)c2ccc(-c3cnc4ccccc4c3Cl)cc2)CC1` (stereo not shown) [Example 75, 1-(4-{1-[4-(4-Chloroquinolin-3-yl)-phenyl]-ethyl}-piperidin-1-yl)-propan-1-one], the IC50 is reported as 0.001 to 0.099 µM. `O=C([C@H]1CCCO1)N1CCC(Cc2ccc(-c3cnc4ccccc4c3)cc2)CC1` [Example 4] gave an IC50 of 0.001 to 0.099 µM. `CCC(=O)N1CCC(C(=O)c2ccc(-c3ccc4cccnc4c3)cc2)CC1` [Example 124, 1-[4-(4-Quinolin-7-yl-benzoyl)-piperidin-1-yl]-propan-1-one] was tested, and the IC50 was 1 to 10 µM. With `COc1c(-c2ccc(C(C)C3CCN(C(=O)[C@H]4CCCO4)CC3)cc2)ccc2cccnc12` (mixture of isomers) [Example 69, (4-{1-[4-(8-Methoxyquinolin-7-yl)-phenyl]-ethyl}-piperidin-1-yl)-(R)-tetrahydrofuran-2-yl-methanone] the IC50 was 0.001 to 0.099 µM. In the case of `CN(C)S(=O)(=O)N1CCC(C2(c3ccc(-c4ccc5ncccc5c4)cc3)OCCO2)CC1` [Example 100, 4-[2-(4-Quinolin-6-yl-phenyl)-1,3-dioxolan-2-yl]-piperidine-1-sulfonic acid dimethylamide], the IC50 is reported as 1 to 10 µM. `CCC(=O)N1CC=C(Cc2ccc(-c3ccc4cnccc4c3)cc2)CC1` [Example 166, 1-(4-(4-(isoquinolin-6-yl)benzyl)-5,6-dihydropyridin-1(2H)-yl)propan-1-one] was tested, and the IC50 was 0.1 to 0.999 µM. With `CCC(=O)N1CCC(F)(Cc2ccc(-c3cnc4ccccc4c3Cl)cc2)CC1` [Example 193, 1-(4-(4-(4-chloroquinolin-3-yl)benzyl)-4-fluoropiperidin-1-yl)propan-1-one] the IC50 was 0.001 to 0.099 µM. Molecule `O=C(C1CC1)N1CCC(Cc2ccc(-c3cc4ccccc4cn3)cc2)CC1` [Example 27, Cyclopropyl-[4-(4-isoquinolin-3-yl-benzyl)-piperidin-1-yl]-methanone] has an IC50 of 1 to 10 µM. `CCC(=O)N1CCC(C(F)(F)c2ccc(-c3cnc4ccccc4c3C)cc2)CC1` [Example 9, 1-(4-{difluoro-[4-(4-methyl-quinolin-3-yl)-phenyl]-methyl}-piperidin-1-yl)-propan-1-one] showed an IC50 of 0.1 to 0.999 µM. Molecule `O=C(NC1CCCC1)N1CCC(C2(c3ccc(-c4ccc5ncccc5c4)cc3)OCCO2)CC1` [Example 107, 4-[2-(4-Quinolin-6-yl-phenyl)-1,3-dioxolan-2-yl]-piperidine-1-carboxylic Acid Cyclopentylamide] has an IC50 of 1 to 10 µM. Work on `O=C(C1CC1)N1CCC(F)(Cc2ccc(-c3cnc4ccccc4c3)cc2)CC1` [Example 171, Cyclopropyl(4-fluoro-4-(4-(quinolin-3-yl)benzyl)piperidin-1-yl)methanone] yielded an IC50 of 0.001 to 0.099 µM. For `Cc1c(-c2ccc(C(C)C3CCN(C(=O)[C@H]4CCCO4)CC3)cc2)ccc2cccnc12` (mixture of isomers) [Example 70, (4-{1-[4-(8-Methylquinolin-7-yl)-phenyl]-ethyl}-piperidin-1-yl)-(R)-tetrahydrofuran-2-yl-methanone], the IC50 was 0.001 to 0.099 µM. In the case of `O=C(C1CC1)N1CC=C(Cc2ccc(-c3cncc4ccccc34)cc2)CC1` [Example 178, Cyclopropyl(4-(4-(isoquinolin-4-yl)benzyl)-5,6-dihydropyridin-1(2H)-yl)methanone], the IC50 is reported as 0.1 to 0.999 µM. With `CC(C)C(=O)N1CCC(C2(c3ccc(-c4ccc5cccnc5c4)cc3)OCCCO2)CC1` [Example 121, 2-Methyl-1-{4-[2-(4-quinolin-7-yl-phenyl)-1,3-dioxinan-2-yl]-piperidin-1-yl}-propan-1-one] the IC50 was 1 to 10 µM. For `CCC(=O)N1CCC(C2(c3ccc(-c4ccc5ncccc5c4)cc3)OCCO2)CC1` [Example 104, 1-{4-[2-(4-Quinolin-6-yl-phenyl)-1,3-dioxolan-2-yl]-piperidin-1-yl}-propan-1-one], the IC50 was 1 to 10 µM. With `CC(c1ccc(-c2cnc3ccccc3c2)cc1)C1CCN(C(=O)OC(C)(C)C)CC1` (stereo not shown) [Example 57, 4-[1-(4-quinolin-3-yl-phenyl)-ethyl]-piperidine-1-carboxylic Acid t-Butyl Ester] the IC50 was 1 to 10 µM. For `CCC(=O)N1CC=C(Cc2ccc(-c3ccc4occc4c3)cc2)CC1` [Example 170, 1-(4-(4-(benzofuran-5-yl)benzyl)-5,6-dihydropyridin-1(2H)-yl)propan-1-one], the IC50 was 0.001 to 0.099 µM. Work on `CCC(=O)N1CCC(C(=NOC)c2ccc(-c3ccc4cccnc4c3)cc2)CC1` (racemic) [Example 50, 1-{4-[[Methoxyimino]-(4-quinolin-7-yl-phenyl)-methyl]-piperidin-1-yl}-propan-1-one] yielded an IC50 of 0.001 to 0.099 µM. `O=C(C1CC1)N1CC=C(Cc2ccc(-c3cnc4ccccc4c3Cl)cc2)CC1` [Example 198, (4-(4-(4-Chloroquinolin-3-yl)benzyl)-3,6-dihydropyridin-1(2H)-yl)(cyclopropyl)methanone] was tested, and the IC50 was 0.1 to 0.999 µM. For `COc1c(-c2ccc(C(C)C3CCN(C(=O)C4CC4)CC3)cc2)ccc2cccnc12` (stereo not shown) [Example 66, Cyclopropyl-(4-{1-[4-(8-methoxyquinolin-7-yl)-phenyl]-ethyl}-piperidin-1-yl)-methanone], the IC50 was 0.001 to 0.099 µM. In the case of `Cc1c(-c2ccc(CC3CCN(C(=O)N(C)C)CC3)cc2)ccc2cccnc12` [Example 233, N,N-dimethyl-4-[[4-(8-methyl-7-quinolyl)phenyl]methyl]piperidine-1-carboxamide], the IC50 is reported as 0.001 to 0.099 µM. `CCC(=O)N1CCC(F)(Cc2ccc(-c3ccc4cnccc4c3)cc2)CC1` [Example 165, 1-(4-fluoro-4-(4-(isoquinolin-6-yl)benzyl)piperidin-1-yl)propan-1-one] was tested, and the IC50 was 0.001 to 0.099 µM. With `O=C(C1CC1)N1CCC(F)(Cc2ccc(-c3ccc4cnccc4c3)cc2)CC1` [Example 175, Cyclopropyl(4-fluoro-4-(4-(isoquinolin-6-yl)benzyl)piperidin-1-yl)methanone] the IC50 was 0.001 to 0.099 µM. `O=C([C@H]1CCCO1)N1CC[C@@H](Cc2ccc(-c3cnc4ccccc4c3)cc2)[C@H](O)C1` [Example 224, [trans-3-Hydroxy-4-(4-quinolin-3-yl-benzyl)-piperidin-1-yl]-(R)-tetrahydrofuran-2-yl-methanone] gave an IC50 of 0.001 to 0.099 µM. In the case of `CCC(=O)N1CC=C(Cc2ccc(-c3ccc4cccnc4c3C)cc2)CC1` [Example 186, 1-(4-(4-(8-methylquinolin-7-yl)benzyl)-3,6-dihydropyridin-1(2H)-yl)propan-1-one], the IC50 is reported as 0.001 to 0.099 µM. `CCC(=O)N1CC=C(Cc2ccc(-c3cnc4ccccc4c3)cc2)CC1` [Example 162, 1-(4-(4-(quinolin-3-yl)benzyl)-5,6-dihydropyridin-1(2H)-yl)propan-1-one] gave an IC50 of 0.001 to 0.099 µM. Work on `Cc1c(-c2ccc(CC3(F)CCN(C(=O)[C@H]4CCCO4)CC3)cc2)ccc2nccn12` [Example 97, (R)-(4-fluoro-4-(4-(5-methylimidazo[1,2-a]pyridin-6-yl)benzyl)piperidin-1-yl)(tetrahydrofuran-2-yl)methanone] yielded an IC50 of 0.001 to 0.099 µM. `CCCC(c1ccc(-c2cnc3ccccc3c2)cc1)C1CCN(C(=O)CC)CC1` (stereo not shown) [Example 54, 1-{4-[1-(4-Quinolin-3-yl-phenyl)-butyl]-piperidin-1-yl}-propan-1-one] showed an IC50 of 0.001 to 0.099 µM. `O=C([C@H]1CCCO1)N1CCC(C(F)c2ccc(-c3cnc4ccccc4c3)cc2)CC1` (stereo partly drawn) [Example 8, {4-[Fluoro-(4-quinolin-3-yl-phenyl)-methyl]-piperidin-1-yl}-(R)-tetrahydro-furan-2-yl-methanone] showed an IC50 of 0.001 to 0.099 µM. For `O=C(C1CC(F)(F)C1)N1CCC(Cc2ccc(-c3cnc4ccccc4c3Cl)cc2)CC1` [Example 21, {4-[4-(4-Chloroquinolin-3-yl)-benzyl]-piperidin-1-yl}-(3,3-difluorocyclobutyl)-methanone], the IC50 was 1 to 10 µM. In the case of `CC(C)C(=O)N1CCC(C(O)c2ccc(-c3ccc4ncccc4c3)cc2)CC1` (stereo not shown) [Example 110, 1-{4-[Hydroxy-(4-quinolin-6-yl-phenyl)-methyl]-piperidin-1-yl}-2-methyl-propan-1-one], the IC50 is reported as 1 to 10 µM. `CCOC(C)(c1ccc(-c2cnc3ccccc3c2)cc1)C1CCN(C(=O)CC)CC1` (stereo not shown) [Example 206, 1-{4-[1-Ethoxy-1-(4-quinolin-3-yl-phenyl)-ethyl]-piperidin-1-yl}-propan-1-one] gave an IC50 of 0.1 to 0.999 µM.
